As a reminder, the IC50 is the concentration at which inhibition is half-maximal. A word on the IC90: it is the point of the concentration-response curve where the effect stands at 90%.

We go through 34 compounds from ChEMBL document CHEMBL4483862, “Open-source discovery of chemical leads for next-generation chemoprotective antimalarials” (2018).

The experiment concerns Plasmodium berghei. The experiment can be described thus: Luciferase/luciferin-expressing antifolate-resistant parasites were used to infect a culture of HepG2 cells that were pre-incubated with compounds. Infected hepatocytes emit light due to the luciferase reaction. Assay results are presented as the percent inhibition of light emission compared to control. […]. The note with it: sporozoite; for IC90: read-out: LUCIFERASE INFECTION ASSAY - IC90. It counts as functional.

Setting [1] is: read-out: LUCIFERASE INFECTION ASSAY - IC50.

In the case of `CCCCNC(=O)NC(=O)CNc1cc(S(=O)(=O)N2CCCCC2)ccc1OCC`, the IC90 is greater than 10 µM. Moreover, for the setting “HEPG2TOX_HILL_SLOPE 3.87, HEPG2TOX_R_SQUARED 0.807, PBLUC_HILL_SLOPE 2.62, PBLUC_R_SQUARED 0.78, read-out: LUCIFERASE INFECTION ASSAY - IC50”, the IC50 is 5.03 µM.
Regarding `Cc1nc2nc(C(F)(F)F)nn2c(C)c1CCC(=O)NCC(c1cccs1)N1CCC(C)CC1` (stereo not drawn), the IC90 was greater than 10 µM. For the same compound, where the note is “PBLUC_HILL_SLOPE 1.88, PBLUC_R_SQUARED 0.575, read-out: LUCIFERASE INFECTION ASSAY - IC50”, the 50% inhibitory concentration (IC50) was determined as 6.51 µM.
On to `Cc1cn2c(CNCCc3ccc(N4CCCCC4)cc3)c(C)nc2s1`, for which the concentration for an effect of 90% (IC90) was found to be 0.606 µM. The half-maximal inhibitory concentration (IC50) (HEPG2TOX_HILL_SLOPE 1.99, HEPG2TOX_R_SQUARED 0.618, PBLUC_HILL_SLOPE 85.2, PBLUC_R_SQUARED 0.531, read-out: LUCIFERASE INFECTION ASSAY - IC50) turned out to be 0.591 µM.
With `S=C(NCCc1csc2ccccc12)Nc1ccc(Cl)cc1`, the concentration for an effect of 90% (IC90) is greater than 9.51 µM. The IC50 (PBLUC_HILL_SLOPE 1.56, PBLUC_R_SQUARED 0.124, read-out: LUCIFERASE INFECTION ASSAY - IC50) was greater than 9.51 µM.
With `Cc1ccc(C)c(Nc2sc(-c3cc(=O)oc4c(C)c(C)ccc34)c(N)c2-c2nc3ccccc3s2)c1`, the 90% effect concentration (IC90) came out at 9.38 µM. The IC50 (PBLUC_HILL_SLOPE 3.07, PBLUC_R_SQUARED 0.45, read-out: LUCIFERASE INFECTION ASSAY - IC50) amounted to 4.59 µM.
On to `O=C(NNC(=O)c1nn(-c2ccccc2)cc1O)c1ccc(-n2cccn2)cc1`, for which the concentration for an effect of 90% (IC90) came to 4.26 µM. The IC50 (HEPG2TOX_HILL_SLOPE 1.34, HEPG2TOX_R_SQUARED 0.874, PBLUC_HILL_SLOPE 11.6, PBLUC_R_SQUARED 0.65, read-out: LUCIFERASE INFECTION ASSAY - IC50) was 3.53 µM.
As for `CNc1nc2cnc(-c3cccc(Oc4ccccc4)c3)cc2n1Cc1cccnc1`, the IC90 was greater than 10 µM. For the same compound, the concentration for half-maximal inhibition (IC50) under setting [1] is greater than 10 µM.
`CCc1ccccc1Nc1c(Cl)c(C)nc2ncnn12`: the IC90 is greater than 11.5 µM. For the setting “HEPG2TOX_HILL_SLOPE 1.69, HEPG2TOX_R_SQUARED 0.869, PBLUC_HILL_SLOPE 4.69, PBLUC_R_SQUARED 0.317, read-out: LUCIFERASE INFECTION ASSAY - IC50”, the IC50 amounted to 7.45 µM.
For the compound `COc1cc(OC)c(N2CC(C(=O)NC(C)c3ccc(F)c(F)c3)CC2=O)cc1Cl` (stereo not drawn), the IC90 was greater than 10 µM. Moreover, the IC50 under setting [1] is greater than 10 µM.
`CNc1nc2cnc(-c3ccc(OC)cc3C)cc2n1Cc1ccc(OC)c(OC)c1`: the IC90 turned out to be 1.22 µM. Also, the IC50 (PBLUC_HILL_SLOPE 14.3, PBLUC_R_SQUARED 0.611, read-out: LUCIFERASE INFECTION ASSAY - IC50) came out at 1.04 µM.
Regarding `C/C(=N\Nc1nc2ccccc2[nH]1)c1ccc(N2CCOCC2)cc1`, the concentration for an effect of 90% (IC90) was greater than 10 µM. Also, the IC50 under setting [1] was greater than 10 µM.
With `Oc1cc2[nH]c3ccccc3c2cc1CN1CCN(Cc2cccs2)CC1`, the IC90 was greater than 10 µM. The concentration for half-maximal inhibition (IC50) (HEPG2TOX_HILL_SLOPE 0.0488, HEPG2TOX_R_SQUARED 0.0234, PBLUC_HILL_SLOPE 24, PBLUC_R_SQUARED 0.263, read-out: LUCIFERASE INFECTION ASSAY - IC50) was determined as 9.5 µM.
Regarding `O=C(NCc1ccc(Cn2cccn2)cc1)N1CCN(c2ccc(C(F)(F)F)cc2[N+](=O)[O-])CC1`, the IC90 is greater than 10 µM. In addition, the IC50 under setting [1] was greater than 10 µM.
Turning to `COc1ccc(CC2(Cc3ccc(OC)c(F)c3)C(=O)N(c3ccccc3C)C(=O)c3ccccc32)cc1F`, the IC90 was greater than 10 µM. The IC50 (FFLUC_HILL_SLOPE 0.212, FFLUC_R_SQUARED 0.0258, read-out: LUCIFERASE INFECTION ASSAY - IC50) is greater than 10 µM.
Turning to `COc1cc(OC)cc(Oc2nc(NC(C)C)nc3ccsc23)c1`, the 90% effect concentration (IC90) amounted to 1.38 µM. The IC50 under setting [1] was 1.25 µM.
Take `CCO/C=N\C1=C(C#N)C(c2ccc(OC)cc2)c2ccc3ccccc3c2O1` (stereo not drawn): the IC90 is greater than 8.58 µM. Further, the IC50 (HEPG2TOX_HILL_SLOPE 1.86, HEPG2TOX_R_SQUARED 0.624, read-out: LUCIFERASE INFECTION ASSAY - IC50) was greater than 8.58 µM.
For `COc1ccnc(Nc2ccc3c(c2)nc2n3CCCCC2)n1`, the concentration for an effect of 90% (IC90) was found to be 2.84 µM. Besides, the half-inhibitory concentration (IC50) (FFLUC_HILL_SLOPE 0.925, FFLUC_R_SQUARED 0.902, HEPG2TOX_HILL_SLOPE 18.6, HEPG2TOX_R_SQUARED 0.895, PBLUC_HILL_SLOPE 0.753, PBLUC_R_SQUARED 0.781, read-out: LUCIFERASE INFECTION ASSAY - IC50) was found to be 0.154 µM.
As for `Cc1cccc(C(=O)Nc2nc3ccccn3c2C(=O)NC2CCCCC2)c1`, the concentration for an effect of 90% (IC90) is 2.91 µM. Further, under “HEPG2TOX_HILL_SLOPE 2.01, HEPG2TOX_R_SQUARED 0.621, PBLUC_HILL_SLOPE 5.25, PBLUC_R_SQUARED 0.58, read-out: LUCIFERASE INFECTION ASSAY - IC50”, the IC50 is 1.91 µM.
`Fc1ccc(/N=c2\scc(-c3ccc4c(c3)OCCO4)n2C2CCCC2)cc1`: the IC90 was determined as 1.58 µM. For the same compound, the concentration for half-maximal inhibition (IC50) (FFLUC_HILL_SLOPE 15, FFLUC_R_SQUARED 0.34, HEPG2TOX_HILL_SLOPE 7.4, HEPG2TOX_R_SQUARED 0.523, PBLUC_HILL_SLOPE 11.6, PBLUC_R_SQUARED 0.501, read-out: LUCIFERASE INFECTION ASSAY - IC50) amounted to 1.31 µM.
As to `O=C(NC1CCCC1)c1ccc(-c2cn3c(-c4ccc(Cl)cc4)cnc3cn2)cc1`, the concentration for an effect of 90% (IC90) was found to be 3.49 µM. The IC50 (HEPG2TOX_HILL_SLOPE 3.94, HEPG2TOX_R_SQUARED 0.381, PBLUC_HILL_SLOPE 3.66, PBLUC_R_SQUARED 0.738, read-out: LUCIFERASE INFECTION ASSAY - IC50) was determined as 1.91 µM.
Take `CCCNC(=O)c1c(NC(=O)c2ccc(F)cc2F)nc2ccc(C)cn12`: the 90% effect concentration (IC90) was found to be 3.51 µM. Where the note is “HEPG2TOX_HILL_SLOPE 5.63, HEPG2TOX_R_SQUARED 0.519, PBLUC_HILL_SLOPE 14, PBLUC_R_SQUARED 0.432, read-out: LUCIFERASE INFECTION ASSAY - IC50”, the IC50 amounted to 2.99 µM.
Consider `CN(C)c1ccccc1-c1cn2c(-c3ccc(CO)cc3)cnc2cn1`, for which the IC90 is greater than 9.58 µM. The IC50 (HEPG2TOX_HILL_SLOPE 4.17, HEPG2TOX_R_SQUARED 0.686, PBLUC_HILL_SLOPE 6.79, PBLUC_R_SQUARED 0.489, read-out: LUCIFERASE INFECTION ASSAY - IC50) was 8.57 µM.
For `Cc1ccc(Sc2ccc(NC(=S)NCC3CCCO3)cc2)c(C)c1` (stereo not drawn), the 90% effect concentration (IC90) was greater than 10 µM. Besides, the IC50 (PBLUC_HILL_SLOPE 9.48, PBLUC_R_SQUARED 0.239, read-out: LUCIFERASE INFECTION ASSAY - IC50) was determined as 8.41 µM.
As for `Cc1ccc(C)c(-c2nn(C(C)C(=O)Nc3cc(C)on3)c(=O)c3ccccc23)c1` (stereo not drawn), the 90% effect concentration (IC90) came to 3.83 µM. Further, the concentration for half-maximal inhibition (IC50) (HEPG2TOX_HILL_SLOPE 5.97, HEPG2TOX_R_SQUARED 0.339, PBLUC_HILL_SLOPE 3.63, PBLUC_R_SQUARED 0.528, read-out: LUCIFERASE INFECTION ASSAY - IC50) is 2.09 µM.
Turning to `COc1ccc(CC(=O)N2CCC3(CC2)OCc2ccccc2O3)cc1`, the IC90 was greater than 9.34 µM. For the same compound, under “FFLUC_HILL_SLOPE 13.5, FFLUC_R_SQUARED 0.0841, HEPG2TOX_HILL_SLOPE 0.312, HEPG2TOX_R_SQUARED 0.567, read-out: LUCIFERASE INFECTION ASSAY - IC50”, the IC50 is greater than 9.34 µM.
As to `O=[N+]([O-])c1ccc(Oc2c(Cl)cc(Cl)cc2Cl)cc1`, the concentration for an effect of 90% (IC90) was greater than 10.4 µM. The IC50 (PBLUC_HILL_SLOPE 1.34, PBLUC_R_SQUARED 0.555, read-out: LUCIFERASE INFECTION ASSAY - IC50) turned out to be 3.75 µM.
For `CC(=O)c1cccc(NC(=O)Nc2ccc3nc(-c4cccc(C(F)(F)F)c4)nn3c2)c1`, the concentration for an effect of 90% (IC90) turned out to be 9.17 µM. Besides, the IC50 (HEPG2TOX_HILL_SLOPE 8.68, HEPG2TOX_R_SQUARED 0.208, PBLUC_HILL_SLOPE 3.77, PBLUC_R_SQUARED 0.543, read-out: LUCIFERASE INFECTION ASSAY - IC50) came to 5.11 µM.
In the case of `CC1=CC(=O)N(c2cc(Cl)cc(Cl)c2)C1=O`, the IC90 is greater than 12.9 µM. Besides, the IC50 under setting [1] was greater than 12.9 µM.
Regarding `CCOc1c(Br)cc(/C=C2/C(=O)N(C)c3ccccc32)cc1OC`, the 90% effect concentration (IC90) is greater than 10 µM. Moreover, the IC50 (HEPG2TOX_HILL_SLOPE 13, HEPG2TOX_R_SQUARED 0.388, read-out: LUCIFERASE INFECTION ASSAY - IC50) was greater than 10 µM.
Regarding `Fc1ccc(COc2ccccc2CNCc2cccnc2)cc1`, the concentration for an effect of 90% (IC90) is greater than 10.2 µM. For the same compound, under setting [1], the IC50 is greater than 10.2 µM.
As for `N#Cc1c(-c2ccccc2)c(-c2ccccc2)n(C2CCCCC2)c1NC(=O)CCN1C(=O)c2ccccc2C1=O`, the IC90 is greater than 10 µM. Moreover, the IC50 (FFLUC_HILL_SLOPE 12.4, FFLUC_R_SQUARED 0.654, read-out: LUCIFERASE INFECTION ASSAY - IC50) is greater than 10 µM.
On to `Cc1cc(C)cc(C(=O)N(CC2CCCO2)c2nc3ccccc3s2)c1` (stereo not drawn), for which the concentration for an effect of 90% (IC90) was greater than 10 µM. Besides, the IC50 (FFLUC_HILL_SLOPE 16.6, FFLUC_R_SQUARED 0.205, read-out: LUCIFERASE INFECTION ASSAY - IC50) is greater than 10 µM.
Regarding `O=C(Oc1ccc(Cl)cc1Cc1ccccc1)c1ccccc1-c1ccc(C(F)(F)F)cc1`, the 90% effect concentration (IC90) is greater than 10 µM. Further, the IC50 (PBLUC_HILL_SLOPE 2.87, PBLUC_R_SQUARED 0.0345, read-out: LUCIFERASE INFECTION ASSAY - IC50) came to 8.61 µM.
As to `CC(Sc1nnc(-c2ccccc2)c(-c2ccccc2)n1)C(=O)N1CCCC1` (stereo not drawn), the concentration for an effect of 90% (IC90) was 1.49 µM. The concentration for half-maximal inhibition (IC50) (HEPG2TOX_HILL_SLOPE 2.07, HEPG2TOX_R_SQUARED 0.202, PBLUC_HILL_SLOPE 16.4, PBLUC_R_SQUARED 0.575, read-out: LUCIFERASE INFECTION ASSAY - IC50) was determined as 1.3 µM.
